Measured values published in PubChem BioAssay (NCI).
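In this assay, cells in 96-well plates receive the compound at five concentrations for 48 hours. Endpoints are linearly interpolated between the surrounding concentrations. The concentration for 50% growth inhibition is given as GI50. The concentration for full growth arrest is given as TGI.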

How the values were obtained:
Test in all cases: DTP human tumour cell line panel, 48 h
HT29 colon = system: HT29 colon
K-562 leukemia = system: K-562 leukemia
MOLT-4 leukemia = system: MOLT-4 leukemia
SF-295 CNS = system: SF-295 CNS
UO-31 renal = system: UO-31 renal
786-0 renal = system: 786-0 renal
KM12 colon = system: KM12 colon
A498 renal = system: A498 renal
HOP-92 NSCLC = system: HOP-92 NSCLC
NCI-H460 lung = system: NCI-H460 lung

SMILES	GI50 (HT29 colon) [µM]	TGI (HT29 colon) [µM]	GI50 (K-562 leukemia) [µM]	TGI (K-562 leukemia) [µM]	GI50 (MOLT-4 leukemia) [µM]	TGI (MOLT-4 leukemia) [µM]	GI50 (SF-295 CNS) [µM]	TGI (SF-295 CNS) [µM]	GI50 (UO-31 renal) [µM]	TGI (UO-31 renal) [µM]	GI50 (786-0 renal) [µM]	TGI (786-0 renal) [µM]	GI50 (KM12 colon) [µM]	TGI (KM12 colon) [µM]	GI50 (A498 renal) [µM]	TGI (A498 renal) [µM]	GI50 (HOP-92 NSCLC) [µM]	TGI (HOP-92 NSCLC) [µM]	GI50 (NCI-H460 lung) [µM]	TGI (NCI-H460 lung) [µM]
CCc1nc2cc(/C=C/C(=O)NO)ccc2c(=O)n1CCc1ccc(OC)cc1	2.31	49.5	3.07	> 100	2.5	> 100	2.16	5.39	1.5	5.13	2.31	6.28	3.42	> 100	1.17	3.39	1.9	5.7	1.83	10.1
COc1ccc2nc3cccc([N+](=O)[O-])c3c(NCCNCCN(C)C)c2c1	0.0238	0.143	0.0222	0.0987	0.022	0.192	0.0626	0.696	0.119	0.377	0.0429	0.164	0.142	0.414	0.201	0.45	0.0588	0.204	0.0253	0.0967
O=C(/C=C\n1cnc(-c2cc(C(F)(F)F)cc(C(F)(F)F)c2)n1)N1CC(F)(F)C1	0.919	11.5	0.43	> 25	0.197	0.944	0.336	> 17	0.422	> 25	0.387	6.12	2.41	> 25	0.0375	0.452	0.0288	4.37	0.207	3.07
Cc1c(C)c2c(c(C)c1OCC(=O)O)CC[C@@](C)(CCC[C@@H](C)CCC[C@@H](C)CCCC(C)C)O2	58.3	140	62.5	287	50.4	202	60.1	146	84.1	152	93.3	185	63.3	173	94.9	167	58.6	137	55.3	168
O=c1[nH]c(=O)n(C2CC(O)C(CO)O2)cc1COCC(F)(F)F (stereo not drawn)		> 100		> 100		> 100		> 100		> 100		> 100		> 100		> 100		> 100		> 100
Nc1nc2c(ccc3ccccc32)s1	> 100	> 100	91.5	> 100	12.7	> 100	> 100	> 100	74.3	> 100	> 100	> 100	> 100	> 100	74.1	> 100	19.3	85.2	> 100	> 100
C/C(CC(=O)Nc1ccc(NC(=O)C/C(C)=N\NC(N)=O)cc1)=N/NC(N)=O		> 100		> 100		97.8		> 100		> 100		> 100		> 100		> 100		> 100		> 100
O=C(Nc1ccc2c(c1)OCCO2)C(=O)c1c[nH]c2ccccc12	0.81	3.78	0.369	> 100	0.618	> 100	1.33	10.6	5.11	> 71.4	4.28	44.9	0.469	> 100	0.535	7.08	1.34	11.1	1.3	> 100
CC(C)=C1CCC(CN2CCOCC2)C1=O (stereo not drawn)		20.4		6.33		5.54		> 100		32.6		11.2		> 51.4		52.3		8.81		59
Nc1ccc(-c2ccc3ncc4ccc(=O)n(-c5cccc(C(F)(F)F)c5)c4c3c2)cn1	0.115	12	< 0.014	> 43.2	< 0.012	0.402	< 0.01	1.19	< 0.01	2.39	< 0.01	0.423	< 0.0112	1.45	< 0.01	< 0.01	< 0.01	< 0.0226	< 0.01	3.18
COc1cccc2nc3c(C(=O)NCCN(C)C)cccc3nc12		32		25.2		15.1		36.8		66.8		> 84.6		36.9		27.3		28.8		21
C/C(O)=C(\N=O)C(=O)NCc1ccccc1		> 100		> 100		> 100		> 100		> 100		> 100		> 100		> 100		> 100		> 100
CC(C)C(=S)N(C)O		13.2		> 100		> 24.7		> 100		50.2		> 100		> 72.9		63.1		> 100		> 75.5
COc1cc(C2c3cc4c(cc3[C@@H](N(C)c3ccc(N(C)C)cc3)C3COC(=O)C23)OCO4)cc(OC)c1O (stereo partly drawn)		2.62		30.6		25.8		0.325		19.4		26.4		21.5		> 100		36.8		24.2
CN1CCN(CCCOc2cccc3nc(Nc4ccc(F)c(F)c4)ccc23)CC1	0.616	1.35	0.662	1.49	1.31	5.66	4.64	9.3	4.34	9.01	4.66	9.25	2.35	7.78	5.65	11.6	1.43	5.74	2.37	8.9
CCOc1ccc(N=Cc2ccnc3ccccc23)cc1		> 100		46.9		> 100		> 100		> 100		> 100		> 89.9		> 100		> 100		> 100

SMILES	GI50 (HT29 colon) [µM]	TGI (HT29 colon) [µM]	GI50 (K-562 leukemia) [µM]	TGI (K-562 leukemia) [µM]	GI50 (MOLT-4 leukemia) [µM]	TGI (MOLT-4 leukemia) [µM]	GI50 (SF-295 CNS) [µM]	TGI (SF-295 CNS) [µM]	GI50 (UO-31 renal) [µM]	TGI (UO-31 renal) [µM]	GI50 (786-0 renal) [µM]	TGI (786-0 renal) [µM]	GI50 (KM12 colon) [µM]	TGI (KM12 colon) [µM]	GI50 (A498 renal) [µM]	TGI (A498 renal) [µM]	GI50 (HOP-92 NSCLC) [µM]	TGI (HOP-92 NSCLC) [µM]	GI50 (NCI-H460 lung) [µM]	TGI (NCI-H460 lung) [µM]
C=C(CN1c2ccccc2Sc2ccccc21)c1ccc(C(=O)Nc2ccccc2N)cc1	11.5	> 100	2.47	> 100	0.276	> 65.2	> 38.3	> 100	2.03	> 100	0.832	> 100	5.84	> 100	> 100	> 100	> 47.9	> 100	17.7	> 100
CCn1c(=N)sc2nc3ccccc3n2c1=O		> 100		> 100		> 100		> 100		33.3		> 100		> 100		> 100		> 100		> 100
COC(=O)CC(=O)NCC1=CCC(=O)CC1		> 100		> 100		> 100		> 100		> 100		> 100		> 100		> 100		> 100		> 100
Nc1ccccc1C(=O)NC(=O)Nc1ccc(Oc2ncc(Br)cn2)c(Cl)c1		0.448	0.00659	18	0.0511	33.9		0.127		9.03		3.58		9.56		1.21	0.303	6.66		3.53
CC(=O)OC1C(O[C@H]2CC[C@]34O[C@]35CC[C@]3(C)C(C6(C)CC[C@@H](C(C)(C)O)O6)[C@@H](O)CC3(C)[C@@H]5CC(OC3OC(CO)C(O)C(O)C3O)C4C2(C)C)OCC(O)C1O (stereo partly drawn)		> 100		> 74.8		> 100		> 100		> 100		> 60.9		> 100		> 100		> 100		> 100
N#C/C(=C\c1ccccc1)C(NO)Nc1ccccc1 (stereo not drawn)		> 100		> 100		> 100		> 100		> 100		> 100		> 100		> 100		> 100		> 100
CCOC(=O)C#Cc1c(C(=O)OCC)nnn1[C@@H]1O[C@H](CO)[C@H]2OC3(CCCCC3)O[C@H]21	1.93	3.77	1.67	7.97	1.95	5.42	20.9	45.3	1.67	3.28	2.88	8.62	12.2	27	17.6	31.8	2.23	5.27	13.4	28.9
CCC(=O)C(C(=O)CC)c1c(OC(=O)c2ccccc2)ccc(O)c1C(=O)OC		> 100		> 100		> 100		> 100		> 100		> 100		> 100		> 100		> 100		> 100
COc1ccc(-c2n[nH]nc2-c2cc(OC)c3c(c2)OCO3)cc1	0.0365	4.29	< 0.01	> 100	0.0627	5.45	< 0.01	0.429	0.0505	73	0.0423	28.5	< 0.015	8.27	< 0.01	0.0693	0.16	22.2	0.0143	13.2
CCc1nn2ncccc2c1-c1ccnc(NC2CC2)n1	> 25	> 25	> 25	> 25	> 25	> 25	> 25	> 25	> 24	> 25	> 25	> 25	> 25	> 25	9.73	> 25	> 6.73	> 25	> 25	> 25
COC(=O)CCC(=O)N1CC1C (stereo not drawn)		> 100		> 100		> 100		> 100		> 100		> 100		> 100		> 100		> 100		> 100
CCN(CC)c1ccc(N=Nc2ccc(-c3nc4cccn(C)c-4n3)cc2)cc1		13.8		11.9		9.32		19.4		41		17		24.9		28.3		33		17.3
Oc1c(O)c(Cl)c(Cl)c(Cl)c1Cl	4.89	22.4	3.49	> 100	3.51	69.7	3.23	12.7	2.74	13.1	7.98	33	3.96	19.7	2.67	8.92	2.11	7.37	2.62	13.3
O=C1C=C(Nc2ccc(S(=O)(=O)Nc3ncccn3)cc2)c2ccccc2C1=O		45		49.4		> 100		35		57.5		45.6		38.6		69.4		94		42.7
C1CC2=C(C1)C1=S(S2)SC2=C1CCC2		> 100		> 100		> 100		> 100		> 100		> 100		> 100		87.4		> 100		> 100
COc1cc(CN(c2ccc(C)cc2)C2OC(=O)c3ccccc32)cc(OC)c1OC (stereo not drawn)	0.355	> 100	0.365	> 100	0.908	> 100	0.322	> 100	2.7	> 100	0.691	> 100	0.445	> 100	0.361	4.52	0.449	> 100	0.453	> 100
